Laboratory results from ChEMBL document CHEMBL1145752, “Dissociation of antibacterial and hemolytic activities of an amphipathic peptide antibiotic” (2003).
Converted amounts (≈) assume the structure as drawn. Non-standard residues stand in square brackets, D forms with d. Residues, ends and D or L forms follow the SMILES beside them. Orn = NCCC[C@H](N)C(=O)O

Key:
Type in all cases: functional
Bacillus subtilis [1] = test: Inhibitory activity was determined against bacillus subtilis (ATCC 82)
Bacillus subtilis [2] = test: Ratio of minimum hemolysis concentration to that of minimum inhibitory concentration
[3] = Tested for minimum concentration for hemolysis of fresh human erythrocytes

| Compound | MIC (Bacillus subtilis [1]) [µg/mL] | Ratio (Bacillus subtilis [2]) | MHC [3] [µg/mL] |
| --- | --- | --- | --- |
| CC(C)C[C@@H]1NC(=O)[C@H](CCCN)NC(=O)[C@H](C(C)C)NC(=O)[C@H](Cc2ccc(O)cc2)NC(=O)[C@H](Cc2ccc(O)cc2)NC(=O)[C@H](CC(N)=O)NC(=O)[C@@H](Cc2ccccc2)NC(=O)[C@H](Cc2ccccc2)NC(=O)[C@@H]2CCCN2C(=O)[C@@H](Cc2ccccc2)NC1=O | 5 (≈ 3.83 µM) | 24 | 120 |
| CC(C)[C@@H]1NC(=O)[C@H](Cc2ccc(O)cc2)NC(=O)[C@H](CCC(N)=O)NC(=O)[C@H](CC(N)=O)NC(=O)[C@@H](Cc2ccccc2)NC(=O)[C@H](Cc2ccccc2)NC(=O)[C@@H]2CCCN2C(=O)[C@@H](Cc2ccccc2)NC(=O)[C@H](C)NC(=O)[C@H](CCCN)NC1=O | 25 (≈ 20.4 µM) | 2 | 50 |
| CC(C)C[C@@H]1NC(=O)[C@H](CCCN)NC(=O)[C@H](C(C)C)NC(=O)[C@H](Cc2ccc(O)cc2)NC(=O)[C@H](CCC(N)=O)NC(=O)[C@H](CC(N)=O)NC(=O)[C@@H](Cc2ccccc2)NC(=O)[C@H](C)NC(=O)[C@@H]2CCCN2C(=O)[C@@H](Cc2ccccc2)NC1=O | 19 (≈ 15.9 µM) | 2.5 | 47 |
| CC(C)C[C@@H]1NC(=O)[C@H](CCCN)NC(=O)[C@H](C(C)C)NC(=O)[C@H](C)NC(=O)[C@H](CCC(N)=O)NC(=O)[C@H](CC(N)=O)NC(=O)[C@@H](Cc2ccccc2)NC(=O)[C@H](Cc2ccccc2)NC(=O)[C@@H]2CCCN2C(=O)[C@@H](Cc2ccccc2)NC1=O | 14 (≈ 11.9 µM) | 1 | 14 |
| CC(C)C[C@@H]1NC(=O)[C@H](CCCN)NC(=O)[C@H](C(C)C)NC(=O)[C@H](Cc2ccc(O)cc2)NC(=O)[C@H](CCC(N)=O)NC(=O)[C@H](CC(N)=O)NC(=O)[C@@H](Cc2ccccc2)NC(=O)[C@H](Cc2ccccc2)NC(=O)[C@@H]2CCCN2C(=O)[C@@H](C)NC1=O | 15 (≈ 12.6 µM) | 1.3 | 20 |
| CC(C)C[C@@H]1NC(=O)[C@H](CCCN)NC(=O)[C@H](C(C)C)NC(=O)[C@H](Cc2ccc(O)cc2)NC(=O)[C@H](CCC(N)=O)NC(=O)[C@H](CC(N)=O)NC(=O)[C@@H](C)NC(=O)[C@H](Cc2ccccc2)NC(=O)[C@@H]2CCCN2C(=O)[C@@H](Cc2ccccc2)NC1=O | 10 (≈ 8.37 µM) | 4.7 | 47 |
| CC(C)C[C@@H]1NC(=O)[C@H](CCCN)NC(=O)[C@H](C(C)C)NC(=O)[C@H](Cc2ccc(O)cc2)NC(=O)[C@H](Cc2ccccc2)NC(=O)[C@H](CC(N)=O)NC(=O)[C@@H](Cc2ccccc2)NC(=O)[C@H](Cc2ccccc2)NC(=O)[C@@H]2CCCN2C(=O)[C@@H](Cc2ccccc2)NC1=O | 0.6 (≈ 0.465 µM) | 30 | 18 |
| CC(C)C[C@@H]1NC(=O)[C@H](CCCN)NC(=O)[C@H](C(C)C)NC(=O)[C@H](Cc2ccc(O)cc2)NC(=O)[C@H](Cc2c[nH]c3ccccc23)NC(=O)[C@H](CC(N)=O)NC(=O)[C@@H](Cc2ccccc2)NC(=O)[C@H](Cc2ccccc2)NC(=O)[C@@H]2CCCN2C(=O)[C@@H](Cc2ccccc2)NC1=O | 3.8 (≈ 2.86 µM) | 33 | 125 |
| CC(C)C[C@@H]1NC(=O)[C@H](CCCN)NC(=O)[C@H](C(C)C)NC(=O)[C@H](Cc2ccc(O)cc2)NC(=O)[C@H](CCC(N)=O)NC(=O)[C@H](CC(N)=O)NC(=O)[C@@H](Cc2ccccc2)NC(=O)[C@H](Cc2ccccc2)NC(=O)[C@H](C)NC(=O)[C@@H](Cc2ccccc2)NC1=O | 18 (≈ 14.5 µM) | 2.9 | 53 |
| CC(C)C[C@@H]1NC(=O)[C@H](CCCN)NC(=O)[C@H](C(C)C)NC(=O)[C@H](Cc2ccc(O)cc2)NC(=O)[C@H](CCC(N)=O)NC(=O)[C@H](C)NC(=O)[C@@H](Cc2ccccc2)NC(=O)[C@H](Cc2ccccc2)NC(=O)[C@@H]2CCCN2C(=O)[C@@H](Cc2ccccc2)NC1=O | 15 (≈ 12.2 µM) | 2.6 | 39 |

The next lines start with results.

| MIC (Bacillus subtilis [1]) [µg/mL] | Compound | Ratio (Bacillus subtilis [2]) | MHC [3] [µg/mL] |
| --- | --- | --- | --- |
| 1.8 (≈ 1.43 µM) | CC[C@H](C)[C@@H]1NC(=O)[C@H](CC(N)=O)NC(=O)[C@@H](Cc2ccccc2)NC(=O)[C@H](Cc2ccccc2)NC(=O)[C@@H]2CCCN2C(=O)[C@@H](Cc2ccccc2)NC(=O)[C@H](CC(C)C)NC(=O)[C@H](CCCN)NC(=O)[C@H](C(C)C)NC(=O)[C@H](Cc2ccc(O)cc2)NC1=O | 25 | 45 |
| 15 (≈ 12.1 µM) | CC(C)C[C@@H]1NC(=O)[C@H](CCCN)NC(=O)[C@H](C)NC(=O)[C@H](Cc2ccc(O)cc2)NC(=O)[C@H](CCC(N)=O)NC(=O)[C@H](CC(N)=O)NC(=O)[C@@H](Cc2ccccc2)NC(=O)[C@H](Cc2ccccc2)NC(=O)[C@@H]2CCCN2C(=O)[C@@H](Cc2ccccc2)NC1=O | 1.1 | 16 |
| 13 (≈ 10.6 µM) | CC(C)C[C@@H]1NC(=O)[C@H](C)NC(=O)[C@H](C(C)C)NC(=O)[C@H](Cc2ccc(O)cc2)NC(=O)[C@H](CCC(N)=O)NC(=O)[C@H](CC(N)=O)NC(=O)[C@@H](Cc2ccccc2)NC(=O)[C@H](Cc2ccccc2)NC(=O)[C@@H]2CCCN2C(=O)[C@@H](Cc2ccccc2)NC1=O | 1 | 13 |
| 0.3 (≈ 0.239 µM) | CC(C)C[C@@H]1NC(=O)[C@H](CC(N)=O)NC(=O)[C@@H](Cc2ccccc2)NC(=O)[C@H](Cc2ccccc2)NC(=O)[C@@H]2CCCN2C(=O)[C@@H](Cc2ccccc2)NC(=O)[C@H](CC(C)C)NC(=O)[C@H](CCCN)NC(=O)[C@H](C(C)C)NC(=O)[C@H](Cc2ccc(O)cc2)NC1=O | 67 | 20 |
| 2.9 (≈ 2.34 µM) | CC(C)C[C@@H]1NC(=O)[C@H](CCCN)NC(=O)[C@H](C(C)C)NC(=O)[C@H](Cc2ccc(O)cc2)NC(=O)[C@H](C(C)C)NC(=O)[C@H](CC(N)=O)NC(=O)[C@@H](Cc2ccccc2)NC(=O)[C@H](Cc2ccccc2)NC(=O)[C@@H]2CCCN2C(=O)[C@@H](Cc2ccccc2)NC1=O | 12 | 35 |
| 0.4 (≈ 0.318 µM) | CC(C)C[C@@H]1NC(=O)[C@H](CCCN)NC(=O)[C@H](C(C)C)NC(=O)[C@H](Cc2ccc(O)cc2)NC(=O)[C@H](CC(N)=O)NC(=O)[C@H](CC(N)=O)NC(=O)[C@@H](Cc2ccccc2)NC(=O)[C@H](Cc2ccccc2)NC(=O)[C@@H]2CCCN2C(=O)[C@@H](Cc2ccccc2)NC1=O | 50 | 20 |
| 0.3 (≈ 0.231 µM) | CC(C)C[C@@H]1NC(=O)[C@H](CCCN)NC(=O)[C@H](C(C)C)NC(=O)[C@H](Cc2ccc(O)cc2)NC(=O)[C@H](CCCN=C(N)N)NC(=O)[C@H](CC(N)=O)NC(=O)[C@@H](Cc2ccccc2)NC(=O)[C@H](Cc2ccccc2)NC(=O)[C@@H]2CCCN2C(=O)[C@@H](Cc2ccccc2)NC1=O | 140 | 42 |
| 5.3 (≈ 4.21 µM) | CC(C)C[C@@H]1NC(=O)[C@H](CCCN)NC(=O)[C@H](C(C)C)NC(=O)[C@H](Cc2ccc(O)cc2)NC(=O)[C@H](CC(=O)O)NC(=O)[C@H](CC(N)=O)NC(=O)[C@@H](Cc2ccccc2)NC(=O)[C@H](Cc2ccccc2)NC(=O)[C@@H]2CCCN2C(=O)[C@@H](Cc2ccccc2)NC1=O | 6 | 32 |
| 0.3 (≈ 0.244 µM) | CC(C)C[C@@H]1NC(=O)[C@H](CCCN)NC(=O)[C@H](C(C)C)NC(=O)[C@H](Cc2ccc(O)cc2)NC(=O)[C@H](CO)NC(=O)[C@H](CC(N)=O)NC(=O)[C@@H](Cc2ccccc2)NC(=O)[C@H](Cc2ccccc2)NC(=O)[C@@H]2CCCN2C(=O)[C@@H](Cc2ccccc2)NC1=O | 53 | 16 |
| 7.5 (≈ 5.9 µM) | CC(C)C[C@@H]1NC(=O)[C@H](CCCN)NC(=O)[C@H](C(C)C)NC(=O)[C@H](Cc2ccc(O)cc2)NC(=O)[C@H](CCC(=O)O)NC(=O)[C@H](CC(N)=O)NC(=O)[C@@H](Cc2ccccc2)NC(=O)[C@H](Cc2ccccc2)NC(=O)[C@@H]2CCCN2C(=O)[C@@H](Cc2ccccc2)NC1=O | 4 | 30 |
| 1.5 (≈ 1.24 µM) | CC(C)C[C@@H]1NC(=O)[C@H](CCCN)NC(=O)[C@H](C(C)C)NC(=O)[C@H](Cc2ccc(O)cc2)NC(=O)[C@H](C)NC(=O)[C@H](CC(N)=O)NC(=O)[C@@H](Cc2ccccc2)NC(=O)[C@H](Cc2ccccc2)NC(=O)[C@@H]2CCCN2C(=O)[C@@H](Cc2ccccc2)NC1=O | 19 | 28 |
| 1.1 (≈ 0.866 µM) | CC(C)C[C@@H]1NC(=O)[C@H](CCCN)NC(=O)[C@H](C(C)C)NC(=O)[C@H](Cc2ccc(O)cc2)NC(=O)[C@H](CCCCN)NC(=O)[C@H](CC(N)=O)NC(=O)[C@@H](Cc2ccccc2)NC(=O)[C@H](Cc2ccccc2)NC(=O)[C@@H]2CCCN2C(=O)[C@@H](Cc2ccccc2)NC1=O (cyclo(F[dF]NKYV[Orn]L[dF]P)) | 90 | 99 |
| 0.2 (≈ 0.159 µM) | CC(C)C[C@@H]1NC(=O)[C@H](CCCN)NC(=O)[C@H](C(C)C)NC(=O)[C@H](Cc2ccc(O)cc2)NC(=O)[C@H](CCCN)NC(=O)[C@H](CC(N)=O)NC(=O)[C@@H](Cc2ccccc2)NC(=O)[C@H](Cc2ccccc2)NC(=O)[C@@H]2CCCN2C(=O)[C@@H](Cc2ccccc2)NC1=O (cyclo(F[dF]N[Orn]YV[Orn]L[dF]P)) | 125 | 25 |
| 8.3 (≈ 6.53 µM) | CC(C)C[C@@H]1NC(=O)[C@H](CCCN)NC(=O)[C@H](C(C)C)NC(=O)[C@H](Cc2ccc(O)cc2)NC(=O)[C@H](CCC(N)=O)NC(=O)[C@H](CC(N)=O)NC(=O)[C@@H](Cc2ccccc2)NC(=O)[C@H](Cc2ccccc2)NC(=O)[C@@H]2CCCN2C(=O)[C@@H](Cc2ccccc2)NC1=O [TYROCIDINE A] (cyclo(F[dF]NQYV[Orn]L[dF]P)) | 1 | 8.2 |
